Read-outs that look alike come from different tables or passages of the source.
How the values were obtained:
[1] = plasma stability in human plasma; format: in vitro ADME; details: human
Experimental: The plasma stability of the angiogenesis inhibitor compounds of the invention was also tested in human plasma at 37° C. (at a 20 μM concentration of the angiogenesis inhibitor compound). The matrix minus the test angiogenesis inhibitor compound was equilibrated at 37° C. for 3 minutes. The assay was initiated by addition of the test compound, and the reaction mixture was incubated in a shaking water bath at 37° C. […] The supernatant was analysed by Liquid Chromatography/Mass spectrometry (LC/MS) using a four point standard curve to obtain percent recovery.
The parent compound remaining (relative to time 0) in the incubation mixture was plotted as a function of time; a first order exponential equation was fit to the observed data, and the elimination half-lives associated with the disappearance of the test angiogenesis inhibitor compound were determined.

[2] = tested on: collagen-induced arthritis; experiment: collagen-induced arthritis model; format: in vivo, Louvain rats; details: for mean radiological evaluation score: control group 2.2
Experimental: The efficacy of the compound described above in example 5 was evaluated using a collagen-induced arthritis model. Briefly, syngeneic 8-week-old female Louvain rats were immunized intradermally under ether anesthesia on Day 0 with 0.5 mg chick collagen II (Genzyme, Boston, Mass.) solubilized in 0.1M acetic acid and emulsified in Incomplete Freund's Adjuvant (Difco, Detroit, Mich.). Using this method, more than 90% of rats typically develop synovitis in both hind limbs 10-14 days post immunization. […] The compound of example 5 was dissolved in a combination of ethanol and distilled water. The rats were dosed commencing on day 10 post immunization as follows: (1) control group: vehicle only daily via intravenous injection (iv) (12 rats), (2) high dose group: 30 mg/kg of the compound of example 5 iv every other day (12 rats), (3) low dose group: 15 mg/kg of the compound of example 5 iv every day (12 rats) and (4) oral group: 100 mg/kg of the compound of example 5 every other day by gavage (11 rats).
Daily clinical evaluations of each paw were graded on an integer scale ranging from 0 to 4, where a score of 0 indicates a normal, unaffected limb, and 4 indicates severe joint destruction. The clinical score is the sum of the four limb scores, and has a maximum possible value of 16. Collagen induced arthritis typically develops only in the hind limbs; therefore, a score of 6 to 8 represents severe arthritis.
Radiologic evaluations of the hind limbs were performed by an investigator blinded to the treatment protocol. The score assigned to each limb was based on (1) the degree of soft tissue swelling, (2) narrowing of the space between joints, (3) degree of periosteal new bone formation and (4) the presence of erosions or ankylosis. Each limb was scored on a scale of 1 to 3, with 1 representing a normal limb and 3 representing severe joint destruction.

[3] = stability in liver microsomes; format: in vitro ADME, rat; details: male, rat, liver microsomes, pH 7.4, male rat liver microsomes 0.5 mg/mL, NADPH regenerating system
Experimental: The stability of the angiogenesis inhibitor compounds in liver microsomes was also tested. The test angiogenesis inhibitor compound at a concentration of 3 μM was incubated with male rat liver microsomes (0.5 mg/mL protein) in the presence of a NADPH regenerating system (1 mM NADP, 10 mM G6P, 1 U/mL G6PdH2, 3 mM MgCl2 ) in 100 mM Phosphate buffer at pH 7.4 at 37° C. Incubations were performed in the presence and absence of 1 μM epoxide hydrolase (EH) inhibitor N-cyclohexyl-N′-(3-phenylpropyl)urea (M. Morisseau et al. (1999) PNAS 96:8849-54) and quantitative analysis performed using LC/MS/MS.
The parent compound remaining (relative to time 0) in the incubation mixture was plotted as a function of time; a first order exponential equation was fit to the observed data, and the elimination half-lives associated with the disappearance of the test compound were determined.

human tumor cell lines = experiment: panel of cancer cell lines, overall; format: cell-based; details: in words, summary of Table VIII
Experimental: The compound of example 5 was also evaluated against a panel of cancer cell lines (Alley, M. C. et al. […] Cancer Research 48: 589-601; Grever, M. R., et al. (1992) Seminars in Oncology, Vol. 19, No. 6, pp 622-638; Boyd, M. R., and Paull, K. D. (1995) Drug Development Research 34: 91-109). The human tumor cell lines of the cancer screening panel were grown in RPMI 1640 medium containing 5% fetal bovine serum and 2 mM L-glutamine. Cells were inoculated into 96 well microtiter plates in 100 μL at plating densities ranging from 5,000 to 40,000 cells/well depending on the doubling time of individual cell lines. […]
Following drug addition, the plates were incubated for an additional 48 hours at 37° C., 5% CO2, 95% air, and 100% relative humidity. […] Bound stain was subsequently solubilized with 10 mM trizma base, and the absorbance was read on an automated plate reader at a wavelength of 515 nm. […] Using the seven absorbance measurements [time zero, (Tz), control growth, (C), and test growth in the presence of drug at the five concentration levels (Ti)], the percentage growth was calculated at each of the drug concentrations levels.
Percentage growth inhibition was calculated as: [(Ti−Tz)/(C−Tz)]×100 for concentrations for which Ti>/=Tz [(Ti−Tz)/Tz]×100 for concentrations for which Ti<Tz. […]

SMILES: CO[C@@H]1[C@H](OC(=O)N[C@@H](C(N)=O)C(C)C)CC[C@]2(CO2)[C@H]1[C@@]1(C)O[C@@H]1CC=C(C)C [Example 5, (1-Carbamoyl-2-methyl-propyl)-carbamic acid-(3R,4S,5S,6R )-5-methoxy-4-[(2R,3R)-2-methyl-3-(3-methyl-but-2-enyl)-oxiranyl]-1-oxa-spiro[2.5]oct-6-yl ester]
- recovery at 0 min, 20 μM [1]: 100%
- recovery at 15 min, 20 μM [1]: 108%
- recovery at 30 min, 20 μM [1]: 103%
- recovery at 60 min, 20 μM [1]: 97%
- recovery at 90 min, 20 μM [1]: 129%
- recovery at 120 min, 20 μM [1]: 107%
- half-life at 20 μM ([1]; plasma): ≥ 500 min
- mean daily clinical score (FIG. 2) ([2]; each treatment group, 19 day period from day 10): significant therapeutic benefit
- mean radiological evaluation score ([2]; high dose group: 30 mg/kg iv every other day): 0.6
- mean radiological evaluation score ([2]; low dose group: 15 mg/kg iv every day): 0.6
- mean radiological evaluation score ([2]; oral group: 100 mg/kg every other day by gavage): 1.6
- half-life at 3 μM ([3]; with 1 μM EH inhibitor, read-out: T1/2 (with EH inhibitor)): 12.1 ± 1 min
- half-life at 3 μM ([3]; without EH inhibitor, read-out: T1/2 (without EH inhibitor)): 11.9 ± 1 min
- inhibitory effect on tumor cell lines (human tumor cell lines): significant inhibitory effect on a wide variety of tumor cell lines
